Measured values reported in US5028614A, “Hydroxymethyl-indolizidines and quinolizidines and their use as α-glucosidase I inhibitors” (Merrell Dow Pharmaceuticals Inc., priority 1990, dated 1991).
Where a name gives a salt, the structure may show the parent alone.

Each molecule was assayed against α-glucosidase I (assay: Microtiter plate assay for α-glucosidase I activity). Conditions: [3H]G3M9N substrate, purified α-glucosidase I, pH 6.8, 37° C., one hour.
Type: biochemical
Description: The [^3 H] glucose labeled oligosaccharides substrate (G3 M9 N) for glucosidase I was prepared by metabolically labeling exponentially growing BHK cells with [^3 H]galactose in the presence of 200μg/ml of castanospermine. BHK cells grown as monolayer were treated with 200μg/ml of castanospermine in DMEM (#430-1600) supplemented with 10% heat inactivated fetal calf serum, 2 mM L-glutamine and 1X of PSN antibiotic mixture. After three hour incubation with castanospermine, [1-^3 H] galactose (10μci/ml of media) was added to label the glycoproteins and cells were allowed to grow to confluency for an additional 48 hours. At the end of labeling period, the cells were washed with cold PBS and scraped with a rubber policeman. Cell pellet was heated for 10 minutes at 100° C. and exhaustively treated with pronase (usually 72 hrs) in 50 mM Tris pH 7.5 containing 10 mM CaCl2 and 1% Pronase under toluene atmosphere to obtain glycopeptides. The glycopeptides were separated on columns of Bio-gel P-4. The glycopeptides peak produced by castanospermine treatment was pooled, treated with Endo-H to release the oligosaccharides. The oligosaccharides obtained by endo-H hydrolysis were bound to a ConA column previously washed with buffer A (50 mM Tris pH 7.5 containing 500 mM NaCl) and equilibrated with buffer B (5 mM Sodium acetate buffer pH 5.5 containing 2 mM of each CaCl2, MgCl2 and MnCl2). The oligosaccharides were then eluted with buffer B containing 100 mM α-methylmannoside. The oligosaccharides eluted from ConA column were further purified and characterized on a calibrated Biogel P-4 column (1.5×200 cm, (-) 400 mesh). The purified oligosaccharides having GLc3 Man9 GlcNAc structure were used as substrate in these studies. […]
ConA-sepharose was washed first with buffer A, then with buffer B as described above, and resuspended in buffer B (gel: buffer, 1:1) before use. […] A 150 μl aliquot of supernatant was removed and counted.

Q: For `O=C(O[C@H]1CCCN2[C@H]1[C@H](O)[C@@H](O)[C@H](O)[C@H]2CO)c1ccccc1` [XVII, [1S-(1α,2β,3α,4β,9α,9aβ) ]-octahydro-4-(hydroxymethyl)-2H-quinolizine-1,2,3,9-tetrol 9-benzoate], which IC50 is on record?
A: 29000 nM

Q: How did the IC50 turn out when `OC[C@@H]1[C@@H](O)[C@H](O)[C@@H](O)[C@H]2[C@@H](O)CCCN21` [Compound XXI, [1S-(1α,2β,3α,4β,9α,9aβ)]-octahydro-4-(hydroxy-methyl) -2H-quinolizine-1,2,3,9-tetrol hydrochloride] was run?
A: 150 nM

Q: How did the IC50 turn out when `OC[C@@H]1[C@@H](O)[C@H](O)[C@@H](O)[C@H]2CCCN21` [Compound VII] was run?
A: 300 nM
